Activity calls are given as the source filed them. The rule behind the calls is not given here. Where a SMILES comes first, the peptide text is derived from it. Bridges are numbered along the chain shown (N, C = ends). Roman numbers before positions name the chains, in order. Side-chain parts run from the residue outwards. The star is where a group is joined. Acetyl(2-naphthyl) = O=C(Cc1ccc2ccccc2c1)*
Assays:
Hemagglutinin = Hemagglutinin (Influenza A virus, UniProt B4URE7); assay: Binding affinity to Influenza A Puerto Rico/8/1934/H1N1 hemagglutin assessed as dissociation constant by surface plasmon resonance assay
Influenza A virus [1] = assay: Antiviral activity against Influenza A virus (A/Puerto Rico/8/1934(H1N1)) infected in MDCK cells assessed as reduction in virus induced cytopathic effect pretreated with compound incubated for 1 hrs by MTT assay; assay type: functional, organism-based
[2] = Cytotoxicity against MDCK cells incubated for 1 hr by MTT assay; assay type: toxicity, cell-based, Canis lupus familiaris; settings: dog
RAW264.7 [3] = assay: Anti-inflammatory activity against mouse RAW264.7 cells assessed as reduction in influenza A virus induced IL-1 beta level at 5 ug/ml by qRT- PCR; assay type: functional, cell-based; settings: dose 5.0 µg/ml
Influenza A virus [4] = assay: Antiviral activity against Influenza A virus (A/Puerto Rico/8/1934(H1N1)) infected in MDCK cells assessed as reduction in M1 mRNA level at 1 ug/ml measured after 24 hrs post infection by qRT-PCR analysis; assay type: functional, organism-based; settings: dose 1.0 µg/ml
RAW264.7 [5] = assay: Anti-inflammatory activity against Influenza A virus (A/Puerto Rico/8/1934(H1N1)) induced mouse RAW264.7 cells assessed as suppression of NF kappa B expression level 5 ug/ml by luciferase reporter assay; assay type: functional, cell-based; settings: dose 5.0 µg/ml
Influenza A virus [6] = assay: Antiviral activity against Influenza A virus (A/Puerto Rico/8/1934(H1N1)) infected in MDCK cells assessed as reduction in viral nucleoprotein expression level at 2.5 ug/ml pretreated with compound measured after 24 hrs post infection by indirect immunofluorescence assay; assay type: functional, organism-based; settings: dose 2.5 µg/ml
Mus musculus [7] = assay: Antiviral activity against Kunming mouse infected with Influenza A virus (A/Puerto Rico/8/1934(H1N1)) assessed as survival rate at 5 mg/kg, ip administered once a day for 5 days relative to control; assay type: functional; settings: 120 h, time 5 day
Influenza A virus [8] = assay: Antiviral activity against Influenza A virus (A/Puerto Rico/8/1934(H1N1)) infected in MDCK cells assessed as reduction in virus induced cytopathic effect during infection incubated for 1 hr by MTT assay; assay type: functional, organism-based
RAW264.7 [9] = assay: Anti-inflammatory activity against mouse RAW264.7 cells assessed as reduction in LPS induced IL-6 level at 5 ug/ml by qRT-PCR analysis; assay type: functional, cell-based; settings: dose 5.0 µg/ml
Influenza A virus [10] = assay: Antiviral activity against Influenza A virus (A/Puerto Rico/8/1934(H1N1)) infected in MDCK cells assessed as reduction in virus induced cytopathic effect pre-treated with virus followed by cell infection for 1 hr by MTT assay; assay type: functional, organism-based
RAW264.7 [11] = assay: Anti-inflammatory activity against mouse RAW264.7 cells assessed as reduction in influenza A virus induced TNF alpha level at 5 ug/ml by qRT- PCR; assay type: functional, cell-based; settings: dose 5.0 µg/ml
[12] = Selectivity index, ratio of CC50 for MDCK cells to IC50 antiviral activity against Influenza A virus (A/Puerto Rico/8/1934(H1N1)) infected in MDCK cells assessed as reduction in virus induced cytopathic effect pre-treated with virus; assay type: toxicity, cell-based; settings: dog, read-out: Selectivity Index
[13] = Cytotoxicity against MDCK cells by CCK-8 assay; assay type: toxicity, cell-based, Canis lupus familiaris; settings: dog
RAW264.7 [14] = assay: Anti-inflammatory activity against mouse RAW264.7 cells assessed as reduction in LPS induced TNF alpha level at 5 ug/ml by qRT-PCR analysis; assay type: functional, cell-based; settings: dose 5.0 µg/ml
Influenza A virus [15] = assay: Antiviral activity against Influenza A virus 699(H3) clinical isolate infected in MDCK cells incubated for 1 hr by MTT assay; assay type: functional, organism-based
Influenza A virus [16] = assay: Antiviral activity against Influenza A virus A/FM/1/47 infected in MDCK cells incubated for 1 hr by MTT assay; assay type: functional, organism-based; settings: A/FM/1/47, MDCK
Influenza B virus = assay: Antiviral activity against Influenza B virus 699[…] clinical isolate infected in MDCK cells incubated for 1 hr by MTT assay; assay type: functional, organism-based
Influenza A virus [17] = assay: Antiviral activity against Influenza A virus (A/Puerto Rico/8/1934(H1N1)) infected in MDCK cells assessed as reduction in viral nucleoprotein expression level at 2.5 ug/ml during infection measured after 24 hrs post infection by indirect immunofluorescence assay; assay type: functional, organism-based; settings: dose 2.5 µg/ml
Influenza A virus [18] = assay: Antiviral activity against Influenza A virus A/Aichi/2/68(H3N2) infected in MDCK cells incubated for 1 hr by MTT assay; assay type: functional, organism-based
Influenza A virus [19] = assay: Antiviral activity against Influenza A virus (A/Puerto Rico/8/1934(H1N1)) infected in MDCK cells assessed as reduction in viral nucleoprotein expression level at 2.5 ug/ml pre-treated with virus measured after 24 hrs post infection by indirect immunofluorescence assay; assay type: functional, organism-based; settings: dose 2.5 µg/ml
RAW264.7 [20] = assay: Anti-inflammatory activity against mouse RAW264.7 cells assessed as reduction in LPS induced IL-1 beta level at 5 ug/ml by qRT-PCR analysis; assay type: functional, cell-based; settings: dose 5.0 µg/ml
Influenza A virus [21] = assay: Antiviral activity against Influenza A virus (A/Puerto Rico/8/1934(H1N1)) infected in MDCK cells assessed as reduction in virus induced cytopathic effect after infection incubated for 1 hr by MTT assay; assay type: functional, organism-based
Mus musculus [22] = assay: Antiviral activity against Kunming mouse infected with Influenza A virus (A/Puerto Rico/8/1934(H1N1)) assessed as increase in body weight at 5 mg/kg, ip measured after 15 days (reference value: 178.7%); assay type: functional; settings: time 15 day
Influenza A virus [23] = assay: Antiviral activity against Influenza A virus (A/Puerto Rico/8/1934(H1N1)) infected in MDCK cells assessed as reduction in HA mRNA level at 1 ug/ml measured after 24 hrs post infection by qRT-PCR analysis; assay type: functional, organism-based; settings: dose 1.0 µg/ml
RAW264.7 [24] = assay: Anti-inflammatory activity against mouse RAW264.7 cells assessed as reduction in influenza A virus induced IL-6 level at 5 ug/ml by qRT- PCR; assay type: functional, cell-based; settings: dose 5.0 µg/ml
RAW264.7 [25] = assay: Anti-inflammatory activity against LPS induced mouse RAW264.7 cells assessed as suppression of NF kappa B expression level at 5 ug/ml by luciferase reporter assay; assay type: functional, cell-based; settings: dose 5.0 µg/ml

Hemagglutinin, sequence (B4URE7 whole entry): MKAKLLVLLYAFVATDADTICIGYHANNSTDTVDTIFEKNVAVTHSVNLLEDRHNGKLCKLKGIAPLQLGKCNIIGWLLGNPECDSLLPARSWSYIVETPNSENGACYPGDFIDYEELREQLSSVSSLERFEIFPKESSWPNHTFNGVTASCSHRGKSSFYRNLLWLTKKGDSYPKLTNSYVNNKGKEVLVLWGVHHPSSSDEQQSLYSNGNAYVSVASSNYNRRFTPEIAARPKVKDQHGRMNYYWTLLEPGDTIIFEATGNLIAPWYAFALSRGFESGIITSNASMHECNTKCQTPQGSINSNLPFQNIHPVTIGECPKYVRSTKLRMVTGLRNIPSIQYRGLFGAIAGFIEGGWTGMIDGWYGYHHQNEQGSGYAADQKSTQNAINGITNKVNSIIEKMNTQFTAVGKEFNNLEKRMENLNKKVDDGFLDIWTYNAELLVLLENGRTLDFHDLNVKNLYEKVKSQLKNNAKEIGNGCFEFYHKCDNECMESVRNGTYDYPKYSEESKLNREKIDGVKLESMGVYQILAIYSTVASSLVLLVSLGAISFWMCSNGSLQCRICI

## NCCCC[C@H](NC(=O)Cc1ccc2ccccc2c1)C(=O)N[C@@H](CCCCN)C(=O)N[C@@H](Cc1c[nH]c2ccccc12)C(=O)N[C@@H](CCCCN)C(=O)NCCCC[C@H](NC(=O)[C@H](CCCCN)NC(=O)[C@H](Cc1c[nH]c2ccccc12)NC(=O)[C@H](CCCCN)NC(=O)[C@H](CCCCN)NC(=O)Cc1ccc2ccccc2c1)C(=O)NCCCC[C@H](NC(=O)[C@H](CCCCNC(=O)[C@H](CCCCN)NC(=O)[C@H](Cc1c[nH]c2ccccc12)NC(=O)[C@H](CCCCN)NC(=O)[C@H](CCCCN)NC(=O)Cc1ccc2ccccc2c1)NC(=O)[C@H](CCCCN)NC(=O)[C@H](Cc1c[nH]c2ccccc12)NC(=O)[C@H](CCCCN)NC(=O)[C@H](CCCCN)NC(=O)Cc1ccc2ccccc2c1)C(=O)NCC(=O)O (I: {Acetyl(2-naphthyl)}-KKWKK([Lys-Trp-Lys-Lys-Acetyl(2-naphthyl)])KG-OH / II: {Acetyl(2-naphthyl)}-KKWKK([Lys-Trp-Lys-Lys-Acetyl(2-naphthyl)]); amide I:6-II:C)
Hemagglutinin
  Kd: 0.00742 nM
Influenza A virus [1]
  IC50: 340 nM
[2]
  CC50 at 1 h: 6670 nM
RAW264.7 [3]
  Activity: Active
Influenza A virus [4]
  Activity: Active
RAW264.7 [5]
  Activity: Active
Influenza A virus [6]
  Activity: Active
Mus musculus [7]
  survival at 5 mg/kg: 40%
Influenza A virus [8]
  IC50: 240 nM
RAW264.7 [9]
  Activity: Active
Influenza A virus [10]
  IC50: 190 nM
RAW264.7 [11]
  Activity: Active
[12]
  selectivity ratio: 35.5
[13]
  CC50: 4410 nM
RAW264.7 [14]
  Activity: Active
Influenza A virus [15]
  IC50: 210 nM
Influenza A virus [16]
  IC50: 230 nM
Influenza B virus
  IC50: 220 nM
Influenza A virus [17]
  Activity: Active
Influenza A virus [18]
  IC50: 330 nM
Influenza A virus [19]
  Activity: Active
RAW264.7 [20]
  Activity: Active
Influenza A virus [21]
  IC50: 7690 nM
Mus musculus [22]
  Activity: 135.8%
Influenza A virus [23]
  Activity: Active
RAW264.7 [24]
  Activity: Active
RAW264.7 [25]
  Activity: Active

Reference: ChEMBL document CHEMBL5131467, “Multivalent peptide dendrimers inhibit the fusion of viral-cellular membranes and the cellular NF-κB signaling pathway” (Eur J Med Chem, 2022)
